# According to patent US20260092179A1, “GENETICALLY MODIFIED HOST CELLS PRODUCING VIOLACEIN, ANALOGUES, AND DERIVATIVES THEREOF” (OCTARINE BIO APS, priority 2022, published 2026):
# Legend:
# [1] = Stability during laundering of dyed fabrics (colour fastness, ΔE); format: physicochemical; details: washed at 30° c.
# Method: (§1) In order to assess the stability and colour fastness of violacein and violacein derivatives dyed onto fabrics, dyed fabrics were subjected to a number of conditions. Fabrics were dyed according to Example 18 and colour coordinates and colour change before and after exposure to a given condition were determined as described in Example 18. To measure temperature stability, fabrics were incubated in an oven set to 80° c. for 4 h. To measure stability under acid and alkaline conditions, fabrics were fully submerged in water solutions set to pH 8 with NaOH and pH 5 with HCl and incubated at room temperature for 30 minutes. Fabrics were then incubated at 37° c. for 4 h. To measure stability during laundering, fabrics were washed at 30° c. under the “mix” setting of a Siemens IQ300 washing machine, then dried in a Siemens IQ300 dryer until dry. To measure artificial light stability, fabrics were placed under an LED lamp at room temperature for 16 h. To measure UV light stability, fabrics were placed under a UV lamp at room temperature for 1 h.
# [2] = UV stability of dyed fabrics (colour fastness, ΔE); format: physicochemical; details: for ΔE: before vs after UV lamp, room temperature, 1 h
# Method: as §1
# [3] = Temperature stability of dyed fabrics (colour fastness, ΔE); format: physicochemical; details: oven 80° c. for 4 h; for ΔE: before and after the stability test
# Method: as §1
# E. coli DH5a = experiment: Antimicrobial activity of dyed Nylon 6,6 fabric: final OD600 and % inhibition; format: cell-based
# Method: (§2) Violacein is reported as being a potent antibiotic, capable of inhibiting the growth of a wide range of microbial kingdoms including bacteria, yeast, fungi, viruses, protozoa and nematode. […] To test this, overnight cultures of wild-type E. coli DH5a and S. cerevisiae S228c strains were diluted in 5 mL of cultivation media (LB for E. coli, minimal media for S. cerevisiae) to a starting OD600 of 0.1. 1.5×1.5 cm dyed Nylon 6,6 fabric strips were sterilized by submerging in 75% ethanol for 15 mins and air drying in a laminar air flow hood before adding to each culture (with undyed Nylon 6,6 fabric as a negative control). […] This experiment provides evidence that all violacein derivatives display antimicrobial properties.
# S. cerevisiae S228c = experiment: as above; format: cell-based
# Method: as §2
# [4] = Acrylic, after test (UV lamp, room temperature, 1 h)
# [5] = Bleached cotton, after test (UV lamp, room temperature, 1 h)
# [6] = Diacetate, after test (UV lamp, room temperature, 1 h)
# [7] = Nylon 6,6, after test (UV lamp, room temperature, 1 h)
# [8] = Polyester, after test (UV lamp, room temperature, 1 h)
# [9] = Wool, after test (UV lamp, room temperature, 1 h)
smiles,measurement,setting,value
O=C1N=C(c2c[nH]c3ccc(O)cc23)C=C1c1c[nH]c2ccccc12 [proviolacein],L,"[1]; Acrylic, After test",67.87
same,a,"[1]; Acrylic, After test",−1.12
same,b,"[1]; Acrylic, After test",2.23
same,L,"[1]; Acrylic, Before test",58.81
same,a,"[1]; Acrylic, Before test",0.01
same,b,"[1]; Acrylic, Before test",1.72
same,ΔE,"[1]; Acrylic, before and after the stability test",9.14
same,L,"[1]; Bleached cotton, After test",73
same,a,"[1]; Bleached cotton, After test",0.55
same,b,"[1]; Bleached cotton, After test",1.68
same,L,"[1]; Bleached cotton, Before test",65.1
same,a,"[1]; Bleached cotton, Before test",1.34
same,b,"[1]; Bleached cotton, Before test",3.23
same,ΔE,"[1]; Bleached cotton, before and after the stability test",8.09
same,L,"[1]; Diacetate, After test",68.23
same,a,"[1]; Diacetate, After test",3.76
same,b,"[1]; Diacetate, After test",5.07
same,L,"[1]; Diacetate, Before test",62.86
same,a,"[1]; Diacetate, Before test",4.96
same,b,"[1]; Diacetate, Before test",5.09
same,ΔE,"[1]; Diacetate, before and after the stability test",5.50
same,L,"[1]; Nylon 6,6, After test",56.92
same,a,"[1]; Nylon 6,6, After test",−1.51
same,b,"[1]; Nylon 6,6, After test",−3.83
same,L,"[1]; Nylon 6,6, Before test",50.65
same,a,"[1]; Nylon 6,6, Before test",−1.57
same,b,"[1]; Nylon 6,6, Before test",−2.84
same,ΔE,"[1]; Nylon 6,6, before and after the stability test",6.35
same,L,"[1]; Polyester, After test",72.82
same,a,"[1]; Polyester, After test",−0.46
same,b,"[1]; Polyester, After test",0.54
same,L,"[1]; Polyester, Before test",65.21
same,a,"[1]; Polyester, Before test",−1.18
same,b,"[1]; Polyester, Before test",1.47
same,ΔE,"[1]; Polyester, before and after the stability test",7.70
same,L,"[1]; Wool, After test",72.54
same,a,"[1]; Wool, After test",−1.14
same,b,"[1]; Wool, After test",5.37
same,L,"[1]; Wool, Before test",64.87
same,a,"[1]; Wool, Before test",0.09
same,b,"[1]; Wool, Before test",5
same,ΔE,"[1]; Wool, before and after the stability test",7.78
same,L,[2]; [4],57.07
same,a,[2]; [4],0.02
same,b,[2]; [4],1.94
same,L,"[2]; Acrylic, before test",57.31
same,a,"[2]; Acrylic, before test",−0.99
same,b,"[2]; Acrylic, before test",2.73
same,ΔE,[2]; Acrylic,1.30
same,L,[2]; [5],64.92
same,a,[2]; [5],1.27
same,b,[2]; [5],3.29
same,L,"[2]; Bleached cotton, before test",64.65
same,a,"[2]; Bleached cotton, before test",0.4
same,b,"[2]; Bleached cotton, before test",2.43
same,ΔE,[2]; Bleached cotton,1.25
same,L,[2]; [6],61.92
same,a,[2]; [6],3.89
same,b,[2]; [6],6.22
same,L,"[2]; Diacetate, before test",61.25
same,a,"[2]; Diacetate, before test",3.87
same,b,"[2]; Diacetate, before test",4.46
same,ΔE,[2]; Diacetate,1.88
same,L,[2]; [7],57.07
same,a,[2]; [7],0.02
same,b,[2]; [7],1.94
same,L,"[2]; Nylon 6,6, before test",57.31
same,a,"[2]; Nylon 6,6, before test",−0.99
same,b,"[2]; Nylon 6,6, before test",2.73
same,ΔE,"[2]; Nylon 6,6",1.30
same,L,[2]; [8],65.53
same,a,[2]; [8],−1.02
same,b,[2]; [8],0.99
same,L,"[2]; Polyester, before test",64.26
same,a,"[2]; Polyester, before test",−2.11
same,b,"[2]; Polyester, before test",1.21
same,ΔE,[2]; Polyester,1.69
same,L,[2]; [9],62.87
same,a,[2]; [9],−0.07
same,b,[2]; [9],5.48
same,L,"[2]; Wool, before test",62.43
same,a,"[2]; Wool, before test",−0.15
same,b,"[2]; Wool, before test",5.23
same,ΔE,[2]; Wool,0.51
same,L,"[3]; Acrylic, After test",58.24
same,a,"[3]; Acrylic, After test",−0.6
same,b,"[3]; Acrylic, After test",1.57
same,L,"[3]; Acrylic, Before test",56.45
same,a,"[3]; Acrylic, Before test",−2.01
same,b,"[3]; Acrylic, Before test",2.1
same,ΔE,[3]; Acrylic,2.34
same,L,"[3]; Bleached cotton, After test",61.95
same,a,"[3]; Bleached cotton, After test",1.2
same,b,"[3]; Bleached cotton, After test",2.46
same,L,"[3]; Bleached cotton, Before test",62.46
same,a,"[3]; Bleached cotton, Before test",0.6
same,b,"[3]; Bleached cotton, Before test",2.51
same,ΔE,[3]; Bleached cotton,0.79
same,L,"[3]; Diacetate, After test",59.98
same,a,"[3]; Diacetate, After test",5.39
same,b,"[3]; Diacetate, After test",6.04
same,L,"[3]; Diacetate, Before test",61.94
same,a,"[3]; Diacetate, Before test",4.17
same,b,"[3]; Diacetate, Before test",5.25
same,ΔE,[3]; Diacetate,2.44
same,L,"[3]; Nylon 6,6, After test",49.91
same,a,"[3]; Nylon 6,6, After test",−1.59
same,b,"[3]; Nylon 6,6, After test",−4
same,L,"[3]; Nylon 6,6, Before test",50.83
same,a,"[3]; Nylon 6,6, Before test",−2.09
same,b,"[3]; Nylon 6,6, Before test",−3.92
same,ΔE,"[3]; Nylon 6,6",1.05
same,L,"[3]; Polyester, After test",62.77
same,a,"[3]; Polyester, After test",−0.52
same,b,"[3]; Polyester, After test",1.37
same,L,"[3]; Polyester, Before test",64.1
same,a,"[3]; Polyester, Before test",−1.81
same,b,"[3]; Polyester, Before test",1.31
same,ΔE,[3]; Polyester,1.85
same,L,"[3]; Wool, After test",64.23
same,a,"[3]; Wool, After test",0.18
same,b,"[3]; Wool, After test",4.96
same,L,"[3]; Wool, Before test",65.67
same,a,"[3]; Wool, Before test",−0.22
same,b,"[3]; Wool, Before test",4.25
same,ΔE,[3]; Wool,1.65
same,Final OD600,"E. coli DH5a; E. coli cultured overnight at 30° c. with dyed Nylon 6,6 fabric strip, starting OD600 0.1",4.52
same,% Inhibition,"E. coli DH5a; E. coli, dyed Nylon 6,6 fabric vs undyed fabric control",13.33%
same,Final OD600,"S. cerevisiae S228c; S. cerevisiae cultured overnight at 30° c. with dyed Nylon 6,6 fabric strip, starting OD600 0.1",4.39
same,% Inhibition,"S. cerevisiae S228c; S. cerevisiae, dyed Nylon 6,6 fabric vs undyed fabric control",18.13%
same,growth inhibition of S. cerevisiae,"S. cerevisiae S228c; dyed Nylon 6,6 fabric strip in culture, overnight 30° c., OD600 versus undyed fabric",most inhibited
